According to patent publication US9562891B2, “Method for screening patient-specific anti-cancer agent using limiting dilution assay” (Samsung Life Public Welfare Foundation, priority 2013, dated 2017):

Experiments:
[1] = system: 775T cell line (patient-derived brain glioblastoma); assay: Screening of anti-cancer agent using limiting dilution assay (sphere formation, ratio of non-formed wells); assay type: cell-based, human; conditions: 775T as compared to 448T and 464T cell lines; cultured 2 to 3 weeks (FIG. 5)
Text: The patient-specific anti-cancer agent was screened by using a limiting dilution assay according to the above-described Examples, and a result obtained therefrom was compared with a result separately obtained by a screening method using a 96 well plate. Alginate gel containing 2, 5, 10, 20, 50 or 100 cells was discharged onto each micropillar and was subjected to stamping into a culture medium containing the anti-cancer agent. The anti-cancer agent SU11274 and PHA665752, which is c-Met inhibitor, was treated for each concentration. A size of spheres formed after being cultured for 2 to 3 weeks was automatically measured and analyzed. Whether or not the sphere is formed was determined by culturing cells of the experimental group and the control group up to 4 doubling times and comparing sphere area max values of the biggest spheres among the spheres formed in each well, as shown in FIG. 4. […] Here, the well having sphere area max value smaller than the reference value was determined that the spheres were not formed in the well (non-formed). The well having sphere area max value as the same as the average value of the sphere area max of the control group or higher than that was determined that the sphere were formed in the well (formed). […]

[2] = system: patient-derived cancer cells (brain glioblastoma); assay: Three-dimensional culture of patient-derived cancer cells in alginate on micropillar chip, Calcein AM sphere staining; assay type: cell-based, human
Experimental: The suspension-cultured neurospheres obtained in Example above were collected and treated with 0.025% trypsin/EDTA for 3 minutes, thereby obtaining cell suspensions at a level of a single cell. The cell suspensions were prepared at a concentration of 4 cells/30 nl, 10 cells/30 nl, 20 cells/30 nl, 40 cells/30 nl, 100 cells/30 nl and 200 cells/30 nl, respectively. 50 μL of 3% alginate (Sigma-Aldrich, US) and 100 μL distilled water were mixed to prepare 1% alginate, and then the cell suspensions and 1% alginate as prepared above were mixed together in the same amount. The prepared alginate/cell mixture was discharged onto the surface-modified micropillar using a microarray spotter (Samsung Electro-Mechanics Co., Korea), followed by gelation for 2 minutes so that an alginate gel containing 2, 5, 10, 20, 50 or 100 cells was fixed onto each micropillar (FIG. 1). Each of 950 nl of 2 μM, 5 μM or 10 μM SU11274 (Sigma-Aldrich, US) was dispersed into a microwell chip (Samsung Electro-Mechanics Co., Korea) and the micropillar chip was subjected to stamping. […] 4 doubling time incubation was performed until spheres were formed from the patient-derived cancer cells, and the micropillar chip was subjected to fluorescence staining. […]

Structure (SMILES)	sensitivity of cell line to anti-cancer effect in limiting dilution assay [1]	survival rate of the cancer cells ([2]; 2 μM, 5 μM or 10 μM, 2-100 cells per alginate gel, cultured 12 days, Calcein AM staining (FIG. 2))	sphere formation (maximum sphere area) ([2]; 5 uM, 12 days, control group sphere areas increased to a maximum of 10.14 times (FIG. 3))
Cc1[nH]c(/C=C2\C(=O)Nc3ccc(S(=O)(=O)N(C)c4cccc(Cl)c4)cc32)c(C)c1C(=O)N1CCN(C)CC1 [SU11274]	most sensitive anti-cancer effects	survival rate of the cancer cells were decreased	did not form the spheres
Cc1[nH]c(/C=C2\C(=O)Nc3ccc(S(=O)(=O)Cc4c(Cl)cccc4Cl)cc32)c(C)c1C(=O)N1CCC[C@@H]1CN1CCCC1 [PHA665752]	most sensitive anti-cancer effects		
